In ChEMBL document CHEMBL3045063, “Synthesis and cytostatic evaluation of some 2-(5-substituted-2-oxoindolin-3-ylidene)-N-substituted hydrazine carbothioamide” (Med Chem Res, 2011):
pIC50: −log10 of the molar value.

Legend:
Type in all cases: functional, cell-based
CCRF-CEM = assay: Cytostatic activity against Homo sapiens (human) CEM cells after 72 hr
MOLT-4 = assay: Cytostatic activity against Homo sapiens (human) Molt4/C8 cells after 72 hr; conditions: MOLT-4, 72 h
L1210 = assay: Cytostatic activity against Mus musculus (mouse) L1210 cells after 48 hr; conditions: L1210, 48 h

pIC50 (CCRF-CEM)	pIC50 (MOLT-4)	pIC50 (L1210)	Compound
4.30	4.32	3.99	O=C1/C(=N\NC(=S)Nc2ccc(Cl)cc2)c2cc(Cl)ccc2N1Cc1ccc(F)cc1
4.21	4.32	3.71	O=C1/C(=N\NC(=S)Nc2ccc(Cl)cc2)c2cc(Br)ccc2N1Cc1ccc(F)cc1
3.88	4.24	3.72	Cc1ccc(NC(=S)N/N=C2\C(=O)N(Cc3ccc(F)cc3)c3ccc(Br)cc32)cc1
4.01	4.13	3.71	Cc1ccc(CN2C(=O)/C(=N\NC(=S)Nc3ccc(Cl)cc3)c3cc(Br)ccc32)cc1
≤ 3.30	3.54	≤ 3.30	Cc1ccc(NC(=S)N/N=C2\C(=O)N(Cc3ccc(Cl)cc3)c3ccc(Br)cc32)cc1
≤ 3.30	3.41	≤ 3.30	Cc1ccc(CN2C(=O)/C(=N\NC(=S)Nc3ccc(C)cc3)c3cc(Br)ccc32)cc1
3.41	3.55	≤ 3.30	O=C1/C(=N\NC(=S)Nc2ccc(Cl)cc2)c2cc(Br)ccc2N1Cc1ccc(Cl)cc1
4.21	4.19	3.97	O=C1Nc2ccc(Cl)cc2/C1=N/NC(=S)Nc1ccc(Cl)cc1
4.21	4.54	4.06	O=C1Nc2ccc(Br)cc2/C1=N/NC(=S)Nc1ccc(Cl)cc1
5.17	5.31	5.02	Cc1ccc(NC(=S)N/N=C2\C(=O)Nc3ccc(Br)cc32)cc1
4.32	4.37	4.16	O=C1Nc2cc(Cl)c(F)cc2/C1=N/NC(=S)Nc1ccc(Cl)cc1
3.88	3.95	3.78	Cc1ccc(NC(=S)N/N=C2\C(=O)Nc3cc(Cl)c(F)cc32)cc1
4.25	4.33	3.81	O=C1/C(=N\NC(=S)Nc2ccc(Cl)cc2)c2cc(F)ccc2N1Cc1ccc(F)cc1
5.60	5.82	5.21	Cc1ccc(NC(=S)N/N=C2\C(=O)N(Cc3ccc(F)cc3)c3ccc(F)cc32)cc1
4.74	5.24	5.01	Cc1ccc(CN2C(=O)/C(=N\NC(=S)Nc3ccc(Cl)cc3)c3cc(Cl)ccc32)cc1
4.17	4.24	3.91	O=C1/C(=N\NC(=S)Nc2ccc(Cl)cc2)c2cc(Cl)ccc2N1Cc1ccc(Cl)cc1
4.60	4.85	4.47	O=C1Nc2ccc(F)cc2/C1=N/NC(=S)Nc1ccc(Cl)cc1
5.32	5.52	5.09	Cc1ccc(NC(=S)N/N=C2\C(=O)Nc3ccc(F)cc32)cc1

Compound	pIC50 (CCRF-CEM)	pIC50 (MOLT-4)	pIC50 (L1210)
N[C@@H](Cc1ccc(N(CCCl)CCCl)cc1)C(=O)O [MELPHALAN]		5.49	
